Results taken from patent US20100292327A1, “TREATMENT OF ASPIRIN RESISTANCE WITH BETAINE AND/OR BETAINE ENRICHED MOLASSES” (priority 2007, published 2010).
“And” between values parts separate entries of the source, which are not always exact repeats. Equal entries are not always repeated. Where two headings read alike, the source gives them in different places.

What was measured:
[1] = system: whole blood aggregation, AspiTest (arachidonic acid); assay: Whole blood aggregation (Multiplate) ASPI test before and one hour after oral betaine (Example 11); format: in vivo, human (patients); conditions: for AspiTest aggregation (AUC): individual patients (one line per patient), one hour after 4 g betaine oral, on aspirin 100 mg/day
Description: (§1) 20 patients attending Hospital cardiovascular consultation were enrolled for the study. Patients were all on 100 mg/day aspirin for their cardiovascular protection. Necessary ethical clearance was obtained from Hospital IRB.
(§2) Whole blood aggregation profile using Multiplate® instrument was assessed for each patient before and one hour after oral administration of 4 g of betaine. Blood was sampled on hirudin as anticoagulant.
(§3) Using the different test procedures available for the Multiplate® comprehensive information on platelet function and antiplatelet effects of betaine vs. basal values was assessed. Agonists were prepared in 1 ml solutions according to Multiplatc technical sheets and were used in the following volumes or concentrations: ASPI test: 20 μL, COL test: 20 μL, TRAP test: 20 μL, ADP test: 20 μL, RISTO test: 40 μL (1.2 mg/ml).

[2] = system: platelet aggregation in whole blood, activation by ADP; assay: Multiplate whole blood aggregometry, ADP test, blood supplemented with betaine (Example 1); format: cell-based, human (CAD patients); parameters: ADP aggregation / ADP aggregation, mean: unit not given here; conditions: for ADP aggregation / ADP aggregation, mean: betaine 50 μg/ml; for inhibition at 50 µg/mL: Homo sapiens, Platelet, betaine 50 μg/ml vs. saline
Description: (§4) Protocol Blood of 24 CAD patients on Aspirin or Aspirin+Clopidogrel is supplemented with saline or Betaine (50 μg/ml) and tested for Whole Blood Aggregometry using a Multiplate® (Dynabyte Informations System GmbH, Munich) whole blood aggregometer different agonists where used i.e.:
(§5) ASPI test: Activation by arachidonic acid to detect Aspirin effects. COL test: Collagen activates the collagen receptor, which leads to a release of endogenous arachidonic acid, which is converted to TXA2 and activates the platelet. ADP test: ADP stimulates platelet activation by the ADP receptors. The most important ADP receptor (P2Y12) is blocked by clopidogrel, prasugrel and ticlopidine. TRAP test: TRAP-6 stimulates the thrombin receptor on the platelet surface. TRAP test allows detecting GPIIb/IIIa antagonists.

[3] = system: platelet aggregation in whole blood, activation by collagen; assay: Multiplate whole blood aggregometry, COL test, blood supplemented with betaine (Example 1); format: cell-based, human (CAD patients); parameters: Collagen aggregation / Collagen aggregation, mean: unit not given here; conditions: for Collagen aggregation / Collagen aggregation, mean: betaine 50 μg/ml; for inhibition at 50 µg/mL: Homo sapiens, Platelet
Description: as §4, §5

[4] = system: platelet aggregation in whole blood, activation by arachidonic acid; assay: Multiplate whole blood aggregometry, ASPI test, blood supplemented with betaine (Example 1); format: cell-based, human (CAD patients); parameters: AspiTest aggregation / AspiTest aggregation, mean: unit not given here; conditions: for AspiTest aggregation / AspiTest aggregation, mean: betaine 50 μg/ml; for inhibition at 50 µg/mL: Homo sapiens, Platelet
Description: as §4, §5

[5] = system: whole blood aggregation, Collagen; assay: Whole blood aggregation (Multiplate) COL test before and one hour after oral betaine (Example 11); format: in vivo, human (patients); conditions: for Collagen aggregation (AUC): individual patients (one line per patient), one hour after 4 g betaine oral, on aspirin 100 mg/day
Description: as §1, §2, §3

[6] = system: platelet aggregation in whole blood, activation by TRAP-6; assay: Multiplate whole blood aggregometry, TRAP test, blood supplemented with betaine (Example 1); format: cell-based, human (CAD patients); parameters: TRAP aggregation / TRAP aggregation, mean: unit not given here; conditions: for TRAP aggregation / TRAP aggregation, mean: betaine 50 μg/ml; for inhibition at 50 µg/mL: Homo sapiens, Platelet, betaine 50 μg/ml vs. saline
Description: as §4, §5

[7] = system: whole blood aggregation, TRAP test; assay: Whole blood aggregation (Multiplate) TRAP test before and one hour after oral betaine (Example 11); format: in vivo, human (patients); conditions: for TRAP aggregation (AUC): individual patients (one line per patient), one hour after 4 g betaine oral, on aspirin 100 mg/day
Description: as §1, §2, §3

[8] = system: whole blood aggregation, ADP; assay: Whole blood aggregation (Multiplate) ADP test before and one hour after oral betaine (Example 11); format: in vivo, human (patients); conditions: for ADP aggregation (AUC): individual patients (one line per patient), one hour after 4 g betaine oral, on aspirin 100 mg/day
Description: as §1, §2, §3

[9] = system: whole blood aggregation, Ristocetin; assay: Whole blood aggregation (Multiplate) RISTO test before and one hour after oral betaine (Example 11); format: in vivo, human (patients); conditions: for Ristocetin aggregation (AUC): individual patients (one line per patient), one hour after 4 g betaine oral, on aspirin 100 mg/day
Description: as §1, §2, §3

[10] = ASA poor responders, after 4 g betaine oral
[11] = ASA and ASA/clopidogrel non responders, individual patients (one line per patient)
[12] = individual patients # 1-24 (one line per patient), blood of CAD patients on aspirin or aspirin+clopidogrel
[13] = betaine 50 μg/ml vs. saline, p<0.05
[14] = after 4 g betaine oral, patients on aspirin 100 mg/day
[15] = 20 patients, after 4 g betaine by oral route
[16] = ASA responders, after 4 g betaine oral

C[N+](C)(C)CC(=O)O [betaine, glycine betaine of formula (CH3)3N^+(CH2) COO^−]
Difference Vs. basal, AspiTest ([1]; 20 patients, after 4 g betaine by oral route, P Student 0.57): 5%
Mean of AUC aggregations, AspiTest ([1]; 20 patients, after 4 g betaine by oral route, basal mean 23.05): 24.15
Difference Vs. basal, AspiTest [1, 10]: 3%
AspiTest aggregation (AUC) ([1]; ASA poor responders): 24 and 74 and 81 and 69 and 46 and 27 and 35 and 52
Difference Vs. basal, AspiTest ([1]; ASA responders, after 4 g betaine oral, P Student 0.6): 14%
AspiTest aggregation (AUC) ([1]; ASA responders): 11 and 7 and 4 (2×) and 9 (2×) and 5 and 1 and 3 (2×) and 6 and 13
AspiTest aggregation, mean ([1]; mean of 8 ASA poor responders after 4 g betaine oral, basal mean 49.375): 51
AspiTest aggregation, mean ([1]; mean of 12 ASA responders after 4 g betaine oral, basal mean 5.5): 6.25
ADP aggregation [2, 11]: 173 and 70 and 89 (2×) and 86 and 90 and 63 and 77 and 83 and 56
inhibition at 50 µg/mL ([2]; ASA and ASA/clopidogrel non responders, P (Student) 0.449, read-out: Additional inhibition, ADP): 5%
inhibition at 50 µg/mL ([2]; all patients, P (Student) 0.067, read-out: Betaine additional inhibition, ADP): 8%
ADP aggregation [2, 12]: 44 and 1 and 68 and 46 and 63 and 77 and 82 and 57 and 83 and 100 and 81 and 56 and 173 and 4 and 70 and 29 and 6 and 13 and 89 (2×) and 86 and 90 and 115
ADP aggregation, mean ([2]; mean of 10 ASA and ASA/clopidogrel non responders, saline mean 91.8): 87.6
ADP aggregation, mean ([2]; mean of patients, saline mean 71.78): 66.17
Collagen aggregation [3, 11]: 42 and 30 and 76 and 91 (2×) and 75 (2×) and 88 and 21 and 24
inhibition at 50 µg/mL ([3]; ASA and ASA/clopidogrel non responders, betaine 50 μg/ml vs. saline, P (Student) 0.0242, read-out: Additional inhibition, Collagen): 17%
inhibition at 50 µg/mL ([3]; all 24 patients, betaine 50 μg/ml vs. saline, P (Student) 0.0006, read-out: Betaine additional inhibition, Collagen): 20%
synergistic effect with aspirin and/or clopidogrel on collagen [3, 13]: significant
Collagen aggregation [3, 12]: 4 and 3 (2×) and 35 and 21 (2×) and 75 (2×) and 91 (2×) and 26 and 34 and 29 and 59 and 25 and 24 and 42 and 2 and 30 and 8 and 17 and 76 and 88 and 46
Collagen aggregation, mean ([3]; mean of 10 ASA and ASA/clopidogrel non responders, saline mean 74.4): 61.3
Collagen aggregation, mean ([3]; mean of 24 patients, saline mean 48.46): 38.54
AspiTest aggregation [4, 11]: 121 and 75 and 97 and 125 and 87 and 94 (2×) and 84 and 49 and 61
inhibition at 50 µg/mL ([4]; ASA and ASA/clopidogrel non responders, betaine 50 μg/ml vs. saline, P (Student) 0.0043, read-out: Additional inhibition, AspiTest): 20%
inhibition at 50 µg/mL ([4]; all 24 patients, betaine 50 μg/ml vs. saline, P (Student) 0.0109, read-out: Betaine additional inhibition, AspiTest): 17%
synergistic effect with aspirin and/or clopidogrel on AspiTest [4, 13]: significant
AspiTest aggregation [4, 12]: 10 and 22 and 54 and 18 and 84 and 94 (2×) and 62 and 29 and 21 and 49 and 17 (2×) and 5 and 61 and 121 and 13 and 75 and 12 and 6 and 97 and 125 and 87 and 77
AspiTest aggregation, mean ([4]; mean of 10 ASA and ASA/clopidogrel non responders, saline mean 111.1): 88.7
AspiTest aggregation, mean ([4]; mean of 24 patients, saline mean 62.54): 52.08
Difference Vs. basal, Collagen ([5]; 20 patients, after 4 g betaine by oral route, P Student 0.045): −19%
Mean of AUC aggregations, Collagen ([5]; 20 patients, after 4 g betaine by oral route, basal mean 30.35): 24.65
Difference Vs. basal, Collagen [5, 10]: −1%
Collagen aggregation (AUC) ([5]; ASA poor responders): 47 and 48 and 32 and 18 and 10 and 58 and 65 and 57
Difference Vs. basal, Collagen ([5]; ASA responders, after 4 g betaine oral, P Student 0.039): −41%
Collagen aggregation (AUC) ([5]; ASA responders): 11 and 7 and 29 and 12 and 23 and 4 and 10 (2×) and 3 (2×) and 30 and 16
effect on platelet function, collagen aggregation [5, 14]: ameliorated significantly
Collagen aggregation, mean ([5]; mean of 8 ASA poor responders after 4 g betaine oral, basal mean 42.375): 41.875
Collagen aggregation, mean ([5]; mean of 12 ASA responders after 4 g betaine oral, basal mean 22.33): 13.17
TRAP aggregation [6, 11]: 155 and 141 and 93 and 179 and 120 and 100 and 67 and 103 (2×) and 29
inhibition at 50 µg/mL ([6]; ASA and ASA/clopidogrel non responders, P (Student) 0.093, read-out: Additional inhibition, TRAP): 19%
inhibition at 50 µg/mL ([6]; all patients, P (Student) 0.0392, read-out: Betaine additional inhibition, TRAP): 13%
TRAP aggregation [6, 12]: 60 (2×) and 102 and 79 and 67 and 103 (2×) and 87 and 84 and 31 and 153 and 152 and 29 and 155 and 141 and 83 and 30 and 22 and 93 and 179 and 120 and 100 and 127
TRAP aggregation, mean ([6]; mean of 10 ASA and ASA/clopidogrel non responders, saline mean 133.7): 109
TRAP aggregation, mean ([6]; mean of patients, saline mean 108): 93.91
Difference Vs. basal, TRAP [7, 15]: 0%
Mean of AUC aggregations, TRAP ([7]; 20 patients, after 4 g betaine by oral route, basal mean 91.95): 91.9
Difference Vs. basal, TRAP [7, 10]: 3%
TRAP aggregation (AUC) ([7]; ASA poor responders): 106 (2×) and 66 (2×) and 133 and 103 and 60 and 95
Difference Vs. basal, TRAP [7, 16]: −2%
TRAP aggregation (AUC) ([7]; ASA responders): 64 and 154 and 115 and 136 and 131 and 29 and 80 and 77 (2×) and 67 and 104 and 69
TRAP aggregation, mean ([7]; mean of 8 ASA poor responders after 4 g betaine oral, basal mean 89): 91.875
TRAP aggregation, mean ([7]; mean of 12 ASA responders after 4 g betaine oral, basal mean 93.92): 91.92
Difference Vs. basal, ADP [8, 15]: 2%
Mean of AUC aggregations, ADP ([8]; 20 patients, after 4 g betaine by oral route, basal mean 55.55): 56.5
Difference Vs. basal, ADP ([8]; ASA poor responders, after 4 g betaine oral, P Student 0.5): −7%
ADP aggregation (AUC) ([8]; ASA poor responders): 71 and 53 and 66 and 60 and 38 and 32 and 70 and 40
Difference Vs. basal, ADP [8, 16]: 8%
ADP aggregation (AUC) ([8]; ASA responders): 2 and 121 and 64 (2×) and 80 and 93 and 14 and 51 and 47 and 44 and 75 and 45
ADP aggregation, mean ([8]; mean of 8 ASA poor responders after 4 g betaine oral, basal mean 57.75): 53.75
ADP aggregation, mean ([8]; mean of 12 ASA responders after 4 g betaine oral, basal mean 54.08): 58.33
Difference Vs. basal, Ristocetin ([9]; 20 patients, after 4 g betaine by oral route, P Student 0.012): −37%
Mean of AUC aggregations, Ristocetin ([9]; 20 patients, after 4 g betaine by oral route, basal mean 53.4): 33.6
Difference Vs. basal, Ristocetin ([9]; ASA poor responders, after 4 g betaine oral, P Student 0.22): −24%
Ristocetin aggregation (AUC) ([9]; ASA poor responders): 62 and 78 and 123 and 81 and 30 and 2 and 43 and 11
Difference Vs. basal, Ristocetin ([9]; ASA responders, after 4 g betaine oral, P Student 0.031): −52%
Ristocetin aggregation (AUC) ([9]; ASA responders): 39 and 10 and 42 and 23 and 35 and 6 and 3 and 21 and 14 (2×) and 26 and 9
effect on platelet function, ristocetin aggregation (agglutination) [9, 14]: ameliorated significantly
Ristocetin aggregation, mean ([9]; mean of 8 ASA poor responders after 4 g betaine oral, basal mean 70.75): 53.75
Ristocetin aggregation, mean ([9]; mean of 12 ASA responders after 4 g betaine oral, basal mean 41.83): 20.17
